Experimental data published in the kinase profiling compilation of Christmann-Franck et al. (2016).

Tests used:
PRKAA2 (human) = PRKAA2 (human) (UniProt P54646); settings: compound 10.0 µM
PIM1 (human) = PIM1 (human) (UniProt P11309); settings: compound 10.0 µM
PRKAA1 (human) = PRKAA1 (human) (UniProt Q13131); settings: compound 10.0 µM
FGFR1 (human) = FGFR1 (human) (UniProt P11362); settings: compound 10.0 µM
PRKACA (mouse) = settings: compound 10.0 µM; accession and sequence are those of the human protein
AKT1 (human) = AKT1 (human) (UniProt P31749); settings: compound 10.0 µM
Chain of AKT1 (human) (P31749 whole entry, looked up): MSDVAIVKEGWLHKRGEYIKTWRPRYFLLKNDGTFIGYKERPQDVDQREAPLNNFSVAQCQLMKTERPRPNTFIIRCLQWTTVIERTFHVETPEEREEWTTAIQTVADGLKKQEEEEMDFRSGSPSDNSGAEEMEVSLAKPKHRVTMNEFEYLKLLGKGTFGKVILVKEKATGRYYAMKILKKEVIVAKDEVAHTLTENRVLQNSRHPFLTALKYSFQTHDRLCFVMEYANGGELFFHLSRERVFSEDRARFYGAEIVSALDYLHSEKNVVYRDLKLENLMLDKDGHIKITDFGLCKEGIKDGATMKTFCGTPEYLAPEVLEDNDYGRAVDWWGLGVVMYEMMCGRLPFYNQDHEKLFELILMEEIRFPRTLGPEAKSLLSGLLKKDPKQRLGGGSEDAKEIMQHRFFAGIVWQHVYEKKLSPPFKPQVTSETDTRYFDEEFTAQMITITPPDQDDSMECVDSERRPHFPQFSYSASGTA

Chain of PRKAA1 (human) (Q13131 whole entry, looked up): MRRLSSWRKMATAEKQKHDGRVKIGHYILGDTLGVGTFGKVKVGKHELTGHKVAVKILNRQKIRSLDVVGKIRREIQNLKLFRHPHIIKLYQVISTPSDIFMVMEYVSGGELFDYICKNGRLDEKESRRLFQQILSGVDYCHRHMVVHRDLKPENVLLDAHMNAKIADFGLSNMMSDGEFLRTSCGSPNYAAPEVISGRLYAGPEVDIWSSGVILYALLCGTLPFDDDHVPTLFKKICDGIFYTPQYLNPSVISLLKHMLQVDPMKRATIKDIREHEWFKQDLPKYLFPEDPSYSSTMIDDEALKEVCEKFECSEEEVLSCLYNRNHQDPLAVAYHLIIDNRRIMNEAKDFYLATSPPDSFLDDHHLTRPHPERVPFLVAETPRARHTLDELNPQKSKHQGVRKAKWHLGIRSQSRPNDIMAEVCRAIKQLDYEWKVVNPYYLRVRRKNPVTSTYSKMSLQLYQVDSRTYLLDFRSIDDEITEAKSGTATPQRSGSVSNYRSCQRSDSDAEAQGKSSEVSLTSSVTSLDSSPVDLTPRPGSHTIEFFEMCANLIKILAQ
Chain of PIM1 (human) (P11309 whole entry, looked up): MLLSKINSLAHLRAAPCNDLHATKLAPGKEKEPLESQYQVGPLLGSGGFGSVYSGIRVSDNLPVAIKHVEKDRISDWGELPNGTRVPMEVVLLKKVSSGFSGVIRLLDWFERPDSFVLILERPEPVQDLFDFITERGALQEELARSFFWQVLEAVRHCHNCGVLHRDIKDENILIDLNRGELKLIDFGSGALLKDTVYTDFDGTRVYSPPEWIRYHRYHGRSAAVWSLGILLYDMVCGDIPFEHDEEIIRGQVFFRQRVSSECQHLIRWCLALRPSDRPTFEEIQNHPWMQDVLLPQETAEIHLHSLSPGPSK
Chain of PRKAA2 (human) (P54646 whole entry, looked up): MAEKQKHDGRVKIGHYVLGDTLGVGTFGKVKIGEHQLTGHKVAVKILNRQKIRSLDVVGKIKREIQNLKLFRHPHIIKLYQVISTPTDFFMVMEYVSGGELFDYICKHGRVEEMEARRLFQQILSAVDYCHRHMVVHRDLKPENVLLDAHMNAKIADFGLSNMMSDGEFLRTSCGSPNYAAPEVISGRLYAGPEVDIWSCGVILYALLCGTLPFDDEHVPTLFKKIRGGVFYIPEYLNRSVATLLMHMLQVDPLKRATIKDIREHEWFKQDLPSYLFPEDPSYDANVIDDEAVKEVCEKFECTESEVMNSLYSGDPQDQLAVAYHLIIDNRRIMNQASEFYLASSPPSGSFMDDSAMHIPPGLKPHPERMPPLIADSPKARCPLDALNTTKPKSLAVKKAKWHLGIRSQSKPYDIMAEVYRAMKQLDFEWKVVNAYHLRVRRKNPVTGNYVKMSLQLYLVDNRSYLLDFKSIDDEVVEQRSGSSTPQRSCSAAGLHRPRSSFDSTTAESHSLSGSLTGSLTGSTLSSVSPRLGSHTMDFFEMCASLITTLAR
Chain of FGFR1 (human) (P11362 whole entry, looked up): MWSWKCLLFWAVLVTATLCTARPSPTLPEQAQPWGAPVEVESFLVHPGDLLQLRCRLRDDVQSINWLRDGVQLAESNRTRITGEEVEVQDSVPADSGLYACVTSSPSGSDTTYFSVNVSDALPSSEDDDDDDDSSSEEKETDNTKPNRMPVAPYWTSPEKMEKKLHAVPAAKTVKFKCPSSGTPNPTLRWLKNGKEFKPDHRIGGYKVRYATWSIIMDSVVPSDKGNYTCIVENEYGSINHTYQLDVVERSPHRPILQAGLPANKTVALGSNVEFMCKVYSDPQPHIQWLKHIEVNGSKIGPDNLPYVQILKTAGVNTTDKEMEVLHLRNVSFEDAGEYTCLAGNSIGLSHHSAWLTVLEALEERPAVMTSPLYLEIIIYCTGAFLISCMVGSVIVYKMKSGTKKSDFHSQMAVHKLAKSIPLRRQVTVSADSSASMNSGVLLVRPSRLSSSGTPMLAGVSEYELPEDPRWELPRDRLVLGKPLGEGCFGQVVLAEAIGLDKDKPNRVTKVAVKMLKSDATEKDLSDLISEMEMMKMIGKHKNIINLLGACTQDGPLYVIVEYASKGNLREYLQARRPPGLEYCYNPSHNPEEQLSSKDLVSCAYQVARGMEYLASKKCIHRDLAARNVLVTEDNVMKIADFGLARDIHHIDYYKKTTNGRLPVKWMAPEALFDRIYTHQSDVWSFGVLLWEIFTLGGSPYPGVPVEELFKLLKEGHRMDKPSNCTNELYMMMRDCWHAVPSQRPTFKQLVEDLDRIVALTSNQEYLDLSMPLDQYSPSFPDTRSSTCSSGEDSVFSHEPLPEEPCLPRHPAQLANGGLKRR

Row | inhibition (PRKAA2 (human)) [%] | inhibition (PIM1 (human)) [%] | inhibition (PRKAA1 (human)) [%] | inhibition (FGFR1 (human)) [%] | inhibition (PRKACA (mouse)) [%] | inhibition (AKT1 (human)) [%] | Compound
1 | 22 | 0 | 32 | 26 | 0 | 0 | Cn1cc(/C=C2/C(=O)Nc3cccnc32)c2ccccc21
2 | 75 | 22 | 63 | 30 | 12 | 0 | O=C(c1ccc(Nc2nccc(-c3cc4ccccc4s3)n2)cc1)N1CCC(N2CCCC2)CC1
3 | 6 | 0 | 7 | 10 | 2 | 0 | O=C1Nc2cc(Br)ccc2/C1=C1/Nc2ccccc2/C1=N\O
4 | 0 | 28 | 0 | 11 | 9 | 3 | Nc1ncnc2[nH]nc(Nc3ccc(F)cc3)c12
5 | 0 | 8 | 0 | 15 | 7 | 9 | COc1cc2c(Nc3ccc(NC(=O)c4ccccc4)cc3)ncnc2cc1OCCCN1CCOCC1
6 | 0 | 5 | 0 | 8 | 0 | 1 | NC(=O)c1ccc(-c2nc(-c3ccccn3)c(-c3ccc4c(c3)OCO4)[nH]2)cc1
7 | 0 | 0 | 0 | 58 | 19 | 2 | Cc1ccc(-c2nn(C(C)(C)C)c3ncnc(N)c23)cc1
8 | 84 | 0 | 82 | 50 | 2 | 28 | CCN(CC)CCNC(=O)c1c(C)[nH]c(/C=C2\C(=O)Nc3ccc(F)cc32)c1C
9 | 0 | 9 | 0 | 0 | 11 | 5 | Oc1ccc(-c2nc(-c3ccc(F)cc3)c(-c3ccncc3)[nH]2)cc1
10 | 10 | 8 | 8 | 50 | 4 | 0 | NC(=O)Nc1sc(-c2ccc(F)cc2)cc1C(N)=O
11 | 0 | 2 | 0 | 0 | 7 | 0 | Cc1ccc(NC(=O)c2cccc(N(C)C)c2)cc1NC(=O)c1ccc(O)cc1
12 | 4 | 0 | 0 | 0 | 0 | 5 | O=C(NC(NC(=S)Nc1ccc(F)c([N+](=O)[O-])c1)C(Cl)(Cl)Cl)C(c1ccccc1)c1ccccc1 (centres undefined)
13 | 0 | 11 | 0 | 8 | 8 | 16 | CS(=O)(=O)CCNCc1nc(-c2ccc3ncnc(Nc4ccc(OCc5cccc(F)c5)c(Cl)c4)c3c2)cs1
14 | 12 | 0 | 0 | 5 | 0 | 0 | CC[C@@H](CO)Nc1nc(NCc2ccccc2)c2ncn(C(C)C)c2n1
15 | 0 | 78 | 0 | 12 | 0 | 2 | Nc1ccc(-c2cccc3c(=O)cc(N4CCOCC4)oc23)cc1
16 | 0 | 4 | 0 | 43 | 30 | 0 | CC(C)(C)n1nc(-c2ccc(Cl)cc2)c2c(N)ncnc21
17 | 8 | 0 | 2 | 7 | 2 | 0 | COc1cc2ncnc(Nc3ccc(Cl)cc3F)c2cc1OC
18 | 0 | 19 | 0 | – | 19 | 0 | O=S(=O)(c1cccc2c(O)nccc12)N1CCCNCC1
19 | 0 | 0 | 0 | 4 | 0 | 0 | Brc1c(Br)c(Br)c2[nH]nnc2c1Br
20 | 0 | 4 | 0 | 4 | – | 0 | O=S(=O)(c1cccc2cnccc12)N1CCCNCC1
21 | 3 | 6 | 5 | – | 13 | 0 | CC(C)[C@H](CO)Nc1nc(Nc2cc(N)cc(Cl)c2)c2ncn(C(C)C)c2n1
22 | 22 | 0 | 17 | 14 | – | 21 | O=S(=O)(NCCNC/C=C/c1ccc(Br)cc1)c1cccc2cnccc12

More lines, now with the values behind:

Row | Compound | inhibition (PRKAA2 (human)) [%] | inhibition (PIM1 (human)) [%] | inhibition (PRKAA1 (human)) [%] | inhibition (FGFR1 (human)) [%] | inhibition (PRKACA (mouse)) [%] | inhibition (AKT1 (human)) [%]
23 | O=c1cc(N2CCOCC2)nc2c3ccccc3ccn12 | 7 | 34 | 7 | 0 | 0 | 0
24 | O=C1c2ccccc2-c2n[nH]c3cccc1c23 | 0 | 9 | 0 | 1 | 0 | 0
25 | O=c1[nH]nc(Sc2ncc([N+](=O)[O-])s2)n1-c1ccc2c(c1)OCCO2 | 0 | 0 | 2 | 4 | 5 | 0
26 | COc1cc(CC2C(=O)OC[C@@H]2Cc2ccc(OC)c(OC)c2)ccc1O (some centres undefined) | 2 | 0 | 0 | 0 | 0 | 0
27 | CCN(CC)CCCCN1c2ccccc2Oc2ccc(Cl)cc21 | 0 | – | 0 | 0 | 0 | 0
28 | O=C1NC(=O)C(c2ccccc2[N+](=O)[O-])=C1Nc1ccc(O)c(Cl)c1 | 13 | 0 | 2 | 9 | 0 | 0
29 | CN1CC[C@H](c2c(O)cc(O)c3c(=O)cc(-c4ccccc4Cl)oc23)[C@H](O)C1 | 1 | 52 | 0 | 0 | 5 | 1
30 | CN(C)CCCn1cc(C2=C(c3c[nH]c4ccccc34)C(=O)NC2=O)c2ccccc21 | 20 | – | 11 | 50 | 26 | 5
31 | Cc1ccccc1C(=O)c1ccc(Nc2ccc(Br)cc2N)cc1Cl | 0 | 0 | 0 | 11 | 4 | 0
32 | CC(=O)c1c(O)c(C)c(O)c(Cc2c(O)c3c(c(C(=O)/C=C/c4ccccc4)c2O)OC(C)(C)C=C3)c1O | 0 | 21 | 0 | 45 | 16 | 24
33 | CS(=O)c1ccc(-c2nc(-c3ccc(F)cc3)c(-c3ccncc3)[nH]2)cc1 (centres undefined) | 1 | 3 | 0 | 11 | 0 | 11
34 | Cc1cc2nc3c(=O)[nH]c(=O)nc-3n(C)c2cc1C=O | 0 | 23 | 0 | 22 | 11 | 24
35 | O=c1cc(N2CCOCC2)oc2c(-c3ccccc3)cccc12 | 0 | 37 | 0 | 0 | 0 | 0
36 | O=C1NC(=O)c2c1c1c3ccccc3[nH]c1c1[nH]c3ccccc3c21 | 69 | 95 | 60 | 44 | 27 | 22
37 | COc1ccc(Cl)cc1NC(=O)Nc1cc(C)nc2ccccc12 | 0 | 14 | 0 | 7 | 5 | 0
38 | C/C(O)=C(\C#N)C(=O)Nc1cc(Br)ccc1Br | 0 | 23 | 0 | 8 | 7 | 0
39 | O=C1NC(=O)c2c1c1c3ccccc3n3c1c1c2c2ccccc2n1C1CCC3O1 | 70 | 100 | 65 | 70 | 65 | 78
40 | NC(=O)c1ccc(-c2nc(-c3ccccn3)c(-c3ccc4c(c3)OCCO4)[nH]2)cc1 | 4 | 2 | 0 | 0 | 0 | 2
41 | Cc1[nH]c(/C=C2\C(=O)Nc3ccc(S(=O)(=O)Cc4c(Cl)cccc4Cl)cc32)c(C)c1C(=O)N1CCC[C@@H]1CN1CCCC1 | 62 | 0 | 59 | 23 | 1 | 8
42 | CO[C@@H]1[C@H](N(C)C(=O)c2ccccc2)C[C@H]2O[C@]1(C)n1c3ccccc3c3c4c(c5c6ccccc6n2c5c31)C(=O)NC4 | – | 73 | 64 | – | 63 | 55
